Source: patent US20230219904A1 (SYNGENTA CROP PROTECTION AG, priority 2020, published 2023)

Key:
Type in all cases: in vivo
Settings in all cases: applied at 125 g/ha, evaluated after 13 days
[1] = tested on: Setaria faberi (SETFA); assay: Post-emergence herbicidal glasshouse test (Table B1)
Experimental: (§1) Seeds of a variety of test species are sown in standard soil in pots (Lolium perenne (LOLPE), Amaranthus retoflexus (AMARE), Abutilon theophrasti (ABUTH), Setaria faberi (SETFA), Echinochloa crus-galh (ECHCG), Ipomoea hederacea (IPOHE)). After cultivation for one day (pre-emergence) or after 8 days cultivation (post-emergence) under controlled conditions in a glasshouse (at 24/16° C., day/night; 14 hours light; 65% humidity), the plants are sprayed with an aqueous spray solution derived from the formulation of the technical active ingredient in acetone/water (50:50) solution containing 0.5% Tween 20 (polyoxyethelyene sorbitan monolaurate, CAS RN 9005-64-5). Compounds are applied at 500 g/h unless otherwise indicated. The test plants are then grown in a glasshouse under controlled conditions in a glasshouse (at 24/16° C., day/night; 14 hours light; 65% humidity) and watered twice daily. After 13 days for pre and post-emergence, the test is evaluated for the percentage damage caused to the plant. The biological activities are shown in the following table on a five-point scale (5=80-100%; 4=60-79%; 3=40-59%; 2=20-39%; 1=0-19%).

[2] = tested on: Echinochloa crus-galh (ECHCG); assay: as above
Experimental: as §1

[3] = tested on: Amaranthus retoflexus (AMARE); assay: as above
Experimental: as §1

[4] = tested on: Ipomoea hederacea (IPOHE); assay: as above
Experimental: as §1

[5] = tested on: Setaria faberi (SETFA); assay: Pre-emergence herbicidal glasshouse test (Table B1)
Experimental: as §1

[6] = tested on: Echinochloa crus-galh (ECHCG); assay: as above
Experimental: as §1

[7] = tested on: Amaranthus retoflexus (AMARE); assay: as above
Experimental: as §1

[8] = tested on: Abutilon theophrasti (ABUTH); assay: as above
Experimental: as §1

[9] = tested on: Ipomoea hederacea (IPOHE); assay: as above
Experimental: as §1

SMILES	POST Application SETFA, percentage damage on five-point scale [1]	POST Application ECHCG, percentage damage on five-point scale [2]	POST Application AMARE, percentage damage on five-point scale [3]	POST Application IPOHE, percentage damage on five-point scale [4]	PRE Application SETFA, percentage damage on five-point scale [5]	PRE Application ECHCG, percentage damage on five-point scale [6]	PRE Application AMARE, percentage damage on five-point scale [7]	PRE Application ABUTH, percentage damage on five-point scale [8]	PRE Application IPOHE, percentage damage on five-point scale [9]
CCC(C)C(=O)Nc1c(OC(F)(F)F)ccc(C(=O)Nc2nnnn2CC)c1Cl (stereo not drawn) [Compound 1.076]	4 (4=60-79%)	5 (5=80-100%)	4 (4=60-79%)	4 (4=60-79%)	5 (5=80-100%)	5 (5=80-100%)	5 (5=80-100%)	5 (5=80-100%)	5 (5=80-100%)
Cc1c(C(F)F)c(C(=O)Nc2c(OC(F)F)ccc(C(=O)Nc3nnnn3C)c2Cl)nn1C [Compound 1.052]	5 (5=80-100%)	4 (4=60-79%)	5 (5=80-100%)	4 (4=60-79%)	5 (5=80-100%)	5 (5=80-100%)	5 (5=80-100%)	5 (5=80-100%)	4 (4=60-79%)
COCCCC(=O)Nc1c(OC(F)(F)F)ccc(C(=O)Nc2nnnn2C)c1Cl [Compound 1.058]	4 (4=60-79%)	5 (5=80-100%)	4 (4=60-79%)	4 (4=60-79%)	3 (3=40-59%)	5 (5=80-100%)	5 (5=80-100%)	5 (5=80-100%)	5 (5=80-100%)
CCC(=O)N(CC)c1c(OC(F)F)ccc(C(=O)Nc2nnnn2CC)c1Cl [Compound 1.095]	5 (5=80-100%)	5 (5=80-100%)	5 (5=80-100%)	4 (4=60-79%)	4 (4=60-79%)	5 (5=80-100%)	5 (5=80-100%)	5 (5=80-100%)	4 (4=60-79%)
CCOCCC(=O)Nc1c(OC(F)(F)F)ccc(C(=O)Nc2nnnn2C)c1Cl [Compound 1.057]	5 (5=80-100%)	5 (5=80-100%)	5 (5=80-100%)	4 (4=60-79%)	4 (4=60-79%)	5 (5=80-100%)	5 (5=80-100%)	5 (5=80-100%)	5 (5=80-100%)
CCC(=O)Nc1c(OC(F)F)ccc(C(=O)Nc2nnnn2C)c1C(F)(F)F [Compound 1.096]	3 (3=40-59%)	4 (4=60-79%)	4 (4=60-79%)	3 (3=40-59%)	1 (1=0-19%)	1 (1=0-19%)	4 (4=60-79%)	3 (3=40-59%)	3 (3=40-59%)
CCC(COC)C(=O)Nc1c(OC(F)(F)F)ccc(C(=O)Nc2nnnn2CC)c1Cl (stereo not drawn) [Compound 1.069]	5 (5=80-100%)	5 (5=80-100%)	4 (4=60-79%)	4 (4=60-79%)	5 (5=80-100%)	5 (5=80-100%)	5 (5=80-100%)	5 (5=80-100%)	4 (4=60-79%)
CCn1nnnc1NC(=O)c1ccc(OC(F)(F)F)c(NC(=O)COC(C)C)c1Cl [Compound 1.072]	5 (5=80-100%)	5 (5=80-100%)	4 (4=60-79%)	4 (4=60-79%)	4 (4=60-79%)	5 (5=80-100%)	5 (5=80-100%)	5 (5=80-100%)	5 (5=80-100%)
CCOCCC(=O)Nc1c(OC(F)(F)F)ccc(C(=O)Nc2nnnn2CC)c1Cl [Compound 1.077]	5 (5=80-100%)	5 (5=80-100%)	5 (5=80-100%)	4 (4=60-79%)	3 (3=40-59%)	5 (5=80-100%)	5 (5=80-100%)	5 (5=80-100%)	5 (5=80-100%)
CCC(=O)Nc1c(OC(F)(F)F)ccc(C(=O)Nc2nnnn2C)c1C [Compound 1.078]	5 (5=80-100%)	5 (5=80-100%)	5 (5=80-100%)	4 (4=60-79%)	4 (4=60-79%)	5 (5=80-100%)	5 (5=80-100%)	5 (5=80-100%)	4 (4=60-79%)
CCOC(C)C(=O)Nc1c(OC(F)(F)F)ccc(C(=O)Nc2nnnn2CC)c1Cl (stereo not drawn) [Compound 1.073]	5 (5=80-100%)	5 (5=80-100%)	5 (5=80-100%)	4 (4=60-79%)	5 (5=80-100%)	5 (5=80-100%)	5 (5=80-100%)	5 (5=80-100%)	5 (5=80-100%)
CCC(=O)Nc1c(OC(F)(F)F)ccc(C(=O)Nc2nnnn2CC)c1C [Compound 1.079]	4 (4=60-79%)	5 (5=80-100%)	4 (4=60-79%)	4 (4=60-79%)	4 (4=60-79%)	5 (5=80-100%)	5 (5=80-100%)	5 (5=80-100%)	4 (4=60-79%)
CCn1nnnc1NC(=O)c1ccc(OC(F)(F)F)c(NC(=O)CCCOC)c1Cl [Compound 1.067]	5 (5=80-100%)	5 (5=80-100%)	5 (5=80-100%)	4 (4=60-79%)	5 (5=80-100%)	5 (5=80-100%)	5 (5=80-100%)	5 (5=80-100%)	5 (5=80-100%)
Cn1cc(C(=O)Nc2c(OC(F)(F)F)ccc(C(=O)Nc3nnnn3C)c2Cl)c(C(F)F)n1 [Compound 1.045]	5 (5=80-100%)	5 (5=80-100%)	5 (5=80-100%)	4 (4=60-79%)	5 (5=80-100%)	5 (5=80-100%)	5 (5=80-100%)	5 (5=80-100%)	4 (4=60-79%)
